Assay results published in patent publication US5134137A, “Cephalosporin antibiotics” (The Upjohn Company, priority 1990, dated 1992).
Values after ≈ are worked out from the molar mass of the structure shown. Where two headings read alike, the source gives them in different places.

Experiments:
Type in all cases: cell-based
[1] = system: Streptococcus uberis; assay: MIC, agar dilution, Streptococcus uberis; conditions: Streptococcus uberis, read-out: MIC
Protocol: (§1) Stock solution of each test antibiotic compound were prepared to have a concentration of 2 mg. of the test compound per milliliter in sterile water of 0.1M ammonium acetate solution. The amount of each compound used was adjusted for base compound activity as calculated from the purity data for the selected batch of compound.
(§2) The dilution procedure described by Washington and Sutter [Manual of Clinical Microbiology, 3rd, Edit. (Lennett, E. H. et al, Eds.), pp. 453-458 (1980), American Society for Microbiology, Washington, D.C.] was modified so that serial concentrations of 128 to 0.0625 microgram/ml. in sterile water was obtained. Then 1.5 ml. aliquots of these test antibiotic dilution mixtures are added to 13.5 molten (50° C.) Mueller-Hinton agar. Each resulting mixture is poured into 15×100 mm, sterile Petri plates and allowed to dry at room temperature overnight.
(§3) Test bacterial cultures are maintained at -70° C. on glass beads. [See R. J. Yancey, Jr. et al, Amer. Jr. of Vet. Research, 48, No. 7, pp. 1050-1053, (1987)]. At least one bacteria-laden bead per culture is dropped into one ml. of brain heart infusion (BHI) broth for overnight culture at 37° C. in 5% V/V carbon dioxide in air atmosphere.
(§4) On the data of assay, 2 to 8 drops of the bacterial broth cultures are transferred to fresh BHI broth (1 ml.) and the mixture is incubated for 4 to 6 hours at 37° C. in a 5% V/V carbon dioxide in air atmosphere. The resulting cultures are then diluted to match a 0.5 MacFarland standard and further diluted 1:20 V/V with sterile saline solution.
(§5) A 0.001 ml. drop of the resulting mixture, containing approximately 10^3 to 10^4 colony forming units (CFU) of each test bacteria organism, is dispensed onto the surface of the test antibiotic compound test plates with a Steer's type replicator. The resulting innoculated plates are incubated 16 to 18 hours at 37° C. with a carbon dioxide atmosphere.
as §1, with “Stock solutions” for “Stock solution”
as §2, with “mm.” for “mm,”
as §2, with “for Microbiology.” for “for Microbiology,”, “15×100 mm.” for “15×100 mm,”
as §3, with “culture” for “cultures”
(§6) On the day of assay, 2 to 8 drops of the bacterial broth cultures are transferred to fresh BHI broth (1 ml.) and the mixture is incubated for 4 to 6 hours at 37° C. in a 5% V/V carbon dioxide in air atmosphere. […]

[2] = system: Corynebacterium pyogenes; assay: MIC, agar dilution, Corynebacterium pyogenes; conditions: strain 213-2; read-out: MIC
Protocol: as §1, §2, §3, §4, §5
as §1, with “Stock solutions” for “Stock solution”
as §2, with “mm.” for “mm,”
as §2, with “for Microbiology.” for “for Microbiology,”, “15×100 mm.” for “15×100 mm,”
as §3, with “culture” for “cultures”
as §6

[3] = system: Micrococcus luteus; assay: MIC, agar dilution, Micrococcus luteus; conditions: Micrococcus luteus; strain UC130; read-out: MIC
Protocol: as §1, §2, §3, §4, §5
as §1, with “Stock solutions” for “Stock solution”
as §2, with “mm.” for “mm,”
as §2, with “for Microbiology.” for “for Microbiology,”, “15×100 mm.” for “15×100 mm,”
as §3, with “culture” for “cultures”
as §6

[4] = system: Streptococcus suis; assay: MIC, agar dilution, Streptococcus suis; conditions: Streptococcus suis; strain 650-2; read-out: MIC
Protocol: as §1, §2, §3, §4, §5
as §1, with “Stock solutions” for “Stock solution”
as §2, with “mm.” for “mm,”
as §2, with “for Microbiology.” for “for Microbiology,”, “15×100 mm.” for “15×100 mm,”
as §3, with “culture” for “cultures”
as §6

[5] = system: Bordetella bronchiseptica; assay: MIC, agar dilution, Bordetella bronchiseptica; conditions: Bordetella bronchiseptica; strain UC6313; read-out: MIC
Protocol: as §1, §2, §3, §4, §5
as §1, with “Stock solutions” for “Stock solution”
as §2, with “mm.” for “mm,”
as §2, with “for Microbiology.” for “for Microbiology,”, “15×100 mm.” for “15×100 mm,”
as §3, with “culture” for “cultures”
as §6

[6] = system: Enterococcus faecium; assay: MIC, agar dilution, Enterococcus faecium; conditions: Enterococcus faecium; strain UC241; read-out: MIC
Protocol: as §1, with “Stock solutions” for “Stock solution”
as §2, §3, §4, §5, §1
as §2, with “mm.” for “mm,”
as §2, with “for Microbiology.” for “for Microbiology,”, “15×100 mm.” for “15×100 mm,”
as §3, with “culture” for “cultures”
as §6

[7] = system: Streptococcus bovis; assay: MIC, agar dilution, Streptococcus bovis; conditions: Streptococcus equinus; strain UC6281; read-out: MIC
Protocol: as §1, §2, §3, §4, §5
as §1, with “Stock solutions” for “Stock solution”
as §2, with “mm.” for “mm,”
as §2, with “for Microbiology.” for “for Microbiology,”, “15×100 mm.” for “15×100 mm,”
as §3, with “culture” for “cultures”
as §6

[8] = system: Salmonella typhimurium; assay: MIC, agar dilution, Salmonella typhimurium; conditions: Salmonella enterica, read-out: MIC
Protocol: as §1, §2, §3, §4, §5
as §1, with “Stock solutions” for “Stock solution”
as §2, with “mm.” for “mm,”
as §2, with “for Microbiology.” for “for Microbiology,”, “15×100 mm.” for “15×100 mm,”
as §3, with “culture” for “cultures”
as §6

[9] = system: Pasteurella hemolytica; assay: MIC (minimum inhibitory concentration), agar dilution, Pasteurella hemolytica; conditions: Pasteurella, read-out: MIC
Protocol: as §1, §2, §3, §4, §5
as §1, with “Stock solutions” for “Stock solution”
as §2, with “mm.” for “mm,”
as §2, with “for Microbiology.” for “for Microbiology,”, “15×100 mm.” for “15×100 mm,”
as §3, with “culture” for “cultures”
as §6

[10] = system: Streptococcus agalactiae; assay: MIC, agar dilution, Streptococcus agalactiae; conditions: Streptococcus agalactiae, read-out: MIC
Protocol: as §1, §2, §3, §4, §5
as §1, with “Stock solutions” for “Stock solution”
as §2, with “mm.” for “mm,”
as §2, with “for Microbiology.” for “for Microbiology,”, “15×100 mm.” for “15×100 mm,”
as §3, with “culture” for “cultures”
as §6

[11] = system: Escherichia coli; assay: MIC, agar dilution, Escherichia coli; conditions: Escherichia coli, read-out: MIC
Protocol: as §1, §2, §3, §4, §5
as §1, with “Stock solutions” for “Stock solution”
as §2, with “mm.” for “mm,”
as §2, with “for Microbiology.” for “for Microbiology,”, “15×100 mm.” for “15×100 mm,”
as §3, with “culture” for “cultures”
as §6

[12] = system: Streptococcus dysgalactiae; assay: MIC, agar dilution, Streptococcus dysgalactiae; conditions: Streptococcus dysgalactiae; strain UC251; read-out: MIC
Protocol: as §1, §2, §3, §4, §5
as §1, with “Stock solutions” for “Stock solution”
as §2, with “mm.” for “mm,”
as §2, with “for Microbiology.” for “for Microbiology,”, “15×100 mm.” for “15×100 mm,”
as §3, with “culture” for “cultures”
as §6

[13] = system: Enterococcus faecalis; assay: MIC, agar dilution, Enterococcus faecalis; conditions: Enterococcus faecalis; strain UC694; read-out: MIC
Protocol: as §1, with “Stock solutions” for “Stock solution”
as §2, §3, §4, §5, §1
as §2, with “mm.” for “mm,”
as §2, with “for Microbiology.” for “for Microbiology,”, “15×100 mm.” for “15×100 mm,”
as §3, with “culture” for “cultures”
as §6

[14] = system: Salmonella choleraesuis; assay: MIC, agar dilution, Salmonella choleraesuis; conditions: Salmonella enterica, read-out: MIC
Protocol: as §1, §2, §3, §4, §5
as §1, with “Stock solutions” for “Stock solution”
as §2, with “mm.” for “mm,”
as §2, with “for Microbiology.” for “for Microbiology,”, “15×100 mm.” for “15×100 mm,”
as §3, with “culture” for “cultures”
as §6

[15] = system: Pseudomonas aeruginosa; assay: MIC, agar dilution, Pseudomonas aeruginosa; conditions: Pseudomonas aeruginosa, read-out: MIC
Protocol: as §1, §2, §3, §4, §5
as §1, with “Stock solutions” for “Stock solution”
as §2, with “mm.” for “mm,”
as §2, with “for Microbiology.” for “for Microbiology,”, “15×100 mm.” for “15×100 mm,”
as §3, with “culture” for “cultures”
as §6

[16] = system: Pasteurella multocida; assay: MIC, agar dilution, Pasteurella multocida; conditions: Pasteurella multocida; strain UC9581; read-out: MIC
Protocol: as §1, §2, §3, §4, §5
as §1, with “Stock solutions” for “Stock solution”
as §2, with “mm.” for “mm,”
as §2, with “for Microbiology.” for “for Microbiology,”, “15×100 mm.” for “15×100 mm,”
as §3, with “culture” for “cultures”
as §6

[17] = system: Staphylococcus aureus; assay: MIC, agar dilution, Staphylococcus aureus; conditions: Staphylococcus aureus, read-out: MIC
Protocol: as §1, §2, §3, §4, §5
as §1, with “Stock solutions” for “Stock solution”
as §2, with “mm.” for “mm,”
as §2, with “for Microbiology.” for “for Microbiology,”, “15×100 mm.” for “15×100 mm,”
as §3, with “culture” for “cultures”
as §6

[18] = TYPHIMURIUM / UC6162, strain UC6162
[19] = TYPHIMURIUM / UC6164, strain UC6164
[20] = CHOLERAESUIS / UC6073, strain UC6073
[21] = CHOLERAESUIS / UC6077, strain UC6077

| MIC ([1]; strain UC3946) | MIC ([1]; strain UC6159) | MIC [2] | MIC [3] | MIC [4] | MIC [5] | MIC [6] | MIC [7] | MIC [8, 18] | MIC [8, 19] | MIC ([10]; strain UC3947) | MIC ([10]; strain UC6892) | MIC ([11]; strain UC3784) | MIC ([11]; strain UC6720) | MIC ([11]; strain UC9670) | MIC [12] | MIC [13] | SMILES | MIC ([9]; strain UC6531) | MIC ([9]; strain UC6532) | MIC ([9]; strain UC9582) | other results |
| --- | --- | --- | --- | --- | --- | --- | --- | --- | --- | --- | --- | --- | --- | --- | --- | --- | --- | --- | --- | --- | --- |
| 0.25 µg/mL (≈ 0.292 µM) | 16 µg/mL (≈ 18.7 µM) | 0.25 µg/mL (≈ 0.292 µM) | ≤ 0.06 µg/mL | ≤ 0.06 µg/mL | > 32 µg/mL | > 32 µg/mL | ≤ 0.06 µg/mL | 2 µg/mL (≈ 2.33 µM) | 2 µg/mL (≈ 2.33 µM) | ≤ 0.06 µg/mL | ≤ 0.06 µg/mL | 2 µg/mL (≈ 2.33 µM) | 2 µg/mL (≈ 2.33 µM) | 2 µg/mL (≈ 2.33 µM) | ≤ 0.06 µg/mL | > 32 µg/mL | CO/N=C(\C(=O)N[C@@H]1C(=O)N2C(C(=O)O)=C(CSSCC3=C(C(=O)O)N4C(=O)[C@@H](NC(=O)/C(=N\OC)c5csc(N)n5)[C@H]4SC3)CS[C@H]12)c1csc(N)n1 [Example 5, 1,1-bis-(7β)-(2-(2-amino-1,3-thiazol-4-yl)-(Z)-2-(methoxyimino)acetamido-4-carboxy-3-cephem-3-yl)dimethyldisulfide] | ≤ 0.06 µg/mL | ≤ 0.06 µg/mL | ≤ 0.06 µg/mL | MIC [14, 20]: 4 µg/mL (≈ 4.67 µM); MIC [14, 21]: 8 µg/mL (≈ 9.33 µM); MIC ([15]; strain ATCC27853): > 32 µg/mL; MIC [16]: ≤ 0.06 µg/mL; MIC ([17]; strain UC6093): 16 µg/mL (≈ 18.7 µM); MIC ([17]; strain UC6097): 16 µg/mL (≈ 18.7 µM); MIC ([17]; strain UC9203): 16 µg/mL (≈ 18.7 µM) |
| 0.13 µg/mL (≈ 0.273 µM) | 16 µg/mL (≈ 33.6 µM) | 0.5 µg/mL (≈ 1.05 µM) | 0.13 µg/mL (≈ 0.273 µM) | ≤ 0.06 µg/mL | > 32 µg/mL | > 32 µg/mL | ≤ 0.06 µg/mL | 1 µg/mL (≈ 2.1 µM) | 1 µg/mL (≈ 2.1 µM) | ≤ 0.06 µg/mL | ≤ 0.06 µg/mL | 1 µg/mL (≈ 2.1 µM) | 1 µg/mL (≈ 2.1 µM) | 1 µg/mL (≈ 2.1 µM) | ≤ 0.06 µg/mL | > 32 µg/mL | CO/N=C(\C(=O)N[C@@H]1C(=O)N2C(C(=O)O)=C(CSSC)CS[C@H]12)c1csc(N)n1 [Example 9, 7-[2-(2-amino-1,3-thiazo-4-yl]-2-(methoxyimino)acetamimdo]-3-methyldithiomethyl-3-cephem-4-carboxylic acid] | ≤ 0.06 µg/mL | ≤ 0.06 µg/mL | ≤ 0.06 µg/mL | MIC [14, 20]: 1 µg/mL (≈ 2.1 µM); MIC [14, 21]: 4 µg/mL (≈ 8.41 µM); MIC ([15]; ATCC27853, strain ATCC 27853): > 32 µg/mL; MIC [16]: ≤ 0.06 µg/mL; MIC ([17]; strain UC6093): 2 µg/mL (≈ 4.21 µM); MIC ([17]; strain UC6097): 2 µg/mL (≈ 4.21 µM); MIC ([17]; strain UC9203): 2 µg/mL (≈ 4.21 µM) |
